Experimental data as given in patent US10722503B2, “Glitazones for topical application” (priority 2017, dated 2020).

Assays:
keratosis pilaris (KP) = assay: Topical treatment of keratosis pilaris (KP) in patients, severity grading; format: in vivo, human; details: formulation similar to that of Example 1, glitazone substituted for pioglitazone
From the text: Prior to treatment, the severity of the KP condition was graded. […]

SEB-1 sebocytes = assay: In vitro treatment of cultured sebocytes, intracellular lipids (ADIPORED fluorescence normalized to DAPI cell count); format: cell-based; details: formulation similar to that of Example 1, glitazone substituted for pioglitazone
Procedure: Cultured SEB-1 sebocytes (Xia et al., Dermato-Endocrinology, 1(2):92-95 (2009)) were treated with the pioglitazone formulation of Example 1. Sebocytes were cultured in 96 wells plates (2500 cells/well), until confluency. Plates were washed twice with warm sterile PBS and then incubated (at 37° C. and 5% CO2) for another 48 hours after treating them with the pioglitazone formulation in treatment media. After 48 hours, media was carefully removed from the plates and, after washing with PBS, ADIPORED™ reagent (Lonza Walkersville, Inc., Walkersville, Md.) was carefully added into each well. The plates were read for intracellular lipids using a spectrofluorometer. The lipid fluorescence was normalized against the total cell count that was performed using DAPI staining. Following treatment, the lipid content in the treated sebocytes was determined to have increased by 27% compared to control untreated sebocytes. The increased lipid content was confirmed by determining the expression of SREBP-1, a lipid synthesis transcription factor.

Row | SMILES | results of Examples 2 and 3 (KP treatment) repeated with another glitazone formulation (keratosis pilaris (KP)) | results of Example 4 (sebocyte lipid content) repeated with another glitazone formulation (SEB-1 sebocytes)
1 | COc1ccc2nc(COc3ccc(CC4SC(=O)NC4=O)cc3)n(C)c2c1 (stereo not drawn) [rivoglitazone] | Results similar to those obtained in Examples 2 to 4 using pioglitazone | Results similar to those obtained in Examples 2 to 4 using pioglitazone
2 | O=C1NC(=O)C(Cc2ccc3cc(OCc4ccccc4F)ccc3c2)S1 (stereo not drawn) [netoglitazone] | Results similar to those obtained in Examples 2 to 4 using pioglitazone | Results similar to those obtained in Examples 2 to 4 using pioglitazone
3 | COc1ccc(Oc2cc(N(C)CCOc3ccc(CC4SC(=O)NC4=O)cc3)ncn2)cc1 (stereo not drawn) [lobeglitazone] | Results similar to those obtained in Examples 2 to 4 using pioglitazone | Results similar to those obtained in Examples 2 to 4 using pioglitazone
